Values after ≈ are worked out from the molar mass of the structure shown. Active and inactive are the calls of the source. No cut-off for these calls is given here.
Columns and labels:
Human alphaherpesvirus 2 = experiment: Antiviral activity on the replication of HSV-2 at 400 ug/mL.; format: functional, organism-based
Vaccinia virus = experiment: Antiviral activity on the replication of vaccinia virus at 400 ug/mL.; format: functional, organism-based; conditions: Orthopoxvirus vaccinia
Human alphaherpesvirus 1 = experiment: Antiviral activity on the replication of HSV-1 at 400 ug/mL.; format: functional, organism-based
[1] = test system: Vesicular stomatitis virus; experiment: Antiviral activity on the replication of vesicular stomatitis virus at 400 ug/mL.; format: functional, organism-based
L1210 [2] = experiment: Inhibition of L1210/0 cell proliferation; format: functional; conditions: Mus musculus, read-out: ID50 (the source's name)
Oryctolagus cuniculus = organism: Oryctolagus cuniculus; experiment: Inhibition of rabbit skeletal muscle protein kinase I; format: functional
L1210 [3] = experiment: Cytotoxic activity against murine leukemia L1210 cells; format: functional; conditions: Mus musculus, read-out: ID50 (the source's name)
L1210 [4] = experiment: Cytotoxic activity against murine leukemia L1210/deoxycytidine kinase deficient cell lines; format: functional; conditions: Mus musculus, read-out: ID50 (the source's name)
L1210/ara C [5] = experiment: Inhibition of L1210/arac cell proliferation at 200 ug/mL; IA means Inactive; format: functional, cell-based; conditions: Mus musculus
L1210/ara C [6] = experiment: Inhibition of L1210/ara C cell proliferation; format: functional; conditions: Mus musculus, read-out: ID50 (the source's name)

| SMILES | Activity (Human alphaherpesvirus 2) | Activity (Vaccinia virus) | Activity (Human alphaherpesvirus 1) | Activity [1] | IC50 (L1210 [2]) | Ka (Oryctolagus cuniculus) | IC50 (L1210 [3]) | IC50 (L1210 [4]) | Activity (L1210/ara C [5]) | IC50 (L1210/ara C [6]) |
| --- | --- | --- | --- | --- | --- | --- | --- | --- | --- | --- |
| CCCc1cn(C2O[C@H](COP(=O)(O)O)[C@@H](O)[C@H]2O)c(=O)nc1N (stereo partly specified) | inactive | inactive | inactive | inactive |  |  |  |  |  |  |
| Nc1ccn([C@@H]2O[C@@H]3COP(=O)(O)O[C@H]3[C@H]2O)c(=O)n1 |  |  |  |  | 43 µg/mL (≈ 141 µM) | 0.03 µM |  |  |  |  |
| CCCCCCCCc1cn(C2O[C@H](COP(=O)(O)O)[C@@H](O)[C@H]2O)c(=O)nc1N (stereo partly specified) | inactive | inactive | inactive | inactive |  |  |  |  |  |  |
| CCCCc1cn([C@@H]2O[C@@H]3COP(=O)(O)O[C@H]3[C@H]2O)c(=O)nc1N.N | inactive | inactive | inactive | inactive |  | 0.8 µM | > 200 µg/mL | > 200 µg/mL |  |  |
| CC(C)c1cn([C@@H]2O[C@@H]3COP(=O)(O)O[C@H]3[C@H]2O)c(=O)nc1N.N | inactive | inactive | inactive | inactive |  | 0.8 µM | > 200 µg/mL | > 200 µg/mL |  |  |
| CCc1cn([C@@H]2O[C@@H]3COP(=O)(O)O[C@H]3[C@H]2O)c(=O)nc1N.N | inactive | inactive | inactive | inactive |  | 0.8 µM | > 200 µg/mL | > 200 µg/mL |  |  |
| Cc1cn([C@@H]2O[C@H](CO)[C@@H](O)[C@H]2O)c(=O)nc1N |  |  |  |  | 94 µg/mL (≈ 365 µM) |  |  |  | inactive |  |
| CCCCCCc1cn([C@@H]2O[C@@H]3COP(=O)(O)O[C@H]3[C@H]2O)c(=O)nc1N.N | inactive | inactive | inactive | inactive |  | 0.8 µM | > 200 µg/mL | > 200 µg/mL |  |  |
| CCCCCc1cn(C2O[C@H](COP(=O)(O)O)[C@@H](O)[C@H]2O)c(=O)nc1N (stereo partly specified) | inactive | inactive | inactive | inactive |  |  |  |  |  |  |
| CC(C)c1cn([C@@H]2O[C@H](CO)[C@@H](O)[C@H]2O)c(=O)nc1N |  |  |  |  | 35 µg/mL (≈ 123 µM) |  |  |  | inactive | 39 µg/mL (≈ 137 µM) |
| CCc1cn(C2O[C@H](COP(=O)(O)O)[C@@H](O)[C@H]2O)c(=O)nc1N (stereo partly specified) | inactive | inactive | inactive | inactive |  |  |  |  |  |  |
| Cc1cn([C@@H]2O[C@H](COP(=O)(O)O)[C@@H](O)[C@H]2O)c(=O)nc1N | inactive | inactive | inactive | inactive | 162 µg/mL (≈ 480 µM) |  |  |  | inactive |  |
| CC(C)c1cn(C2O[C@H](COP(=O)(O)O)[C@@H](O)[C@H]2O)c(=O)nc1N (stereo partly specified) | inactive | inactive | inactive | inactive |  |  |  |  |  |  |
| Nc1ccn([C@@H]2O[C@H](COP(=O)(O)O)[C@@H](O)[C@H]2O)c(=O)n1 |  |  |  |  | 43 µg/mL (≈ 133 µM) |  |  |  | inactive |  |
| CCCCc1cn(C2O[C@H](COP(=O)(O)O)[C@@H](O)[C@H]2O)c(=O)nc1N (stereo partly specified) | inactive | inactive | inactive | inactive |  |  |  |  |  |  |
| CCCCCCCCc1cn([C@@H]2O[C@@H]3COP(=O)(O)O[C@H]3[C@H]2O)c(=O)nc1N.N | inactive | inactive | inactive | inactive |  | 0.8 µM | > 200 µg/mL | > 200 µg/mL |  |  |
| CCCCCCc1cn(C2O[C@H](COP(=O)(O)O)[C@@H](O)[C@H]2O)c(=O)nc1N (stereo partly specified) | inactive | inactive | inactive | inactive |  |  |  |  |  |  |
| Cc1cn([C@@H]2O[C@@H]3COP(=O)(O)O[C@H]3[C@H]2O)c(=O)nc1N.N | inactive | inactive | inactive | inactive |  |  | > 200 µg/mL | > 200 µg/mL |  |  |
| CCCCCCCCc1cnc(O)nc1N |  |  |  |  | 190 µg/mL (≈ 851 µM) |  |  |  | inactive |  |
